From ChEMBL document CHEMBL1201862, “PubChem BioAssay data set” (2004)
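Values below derive from 48-hour exposures of cells grown in 96-well plates, with endpoints linearly interpolated between the two concentrations bracketing the appropriate inhibition level. At the GI50, growth is halved.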 The source made the active and inactive calls. No stated cut-off is given here; in the data, active = GI50 up to about 1.1 µM and inactive = higher.

Assays:
Assay in all cases: inhibition of tumour cell growth, NCI panel, 48 h
[1] = system: CAKI-1
[2] = system: NCI-H460
[3] = system: SF-539
[4] = system: SK-MEL-28
[5] = system: HL-60
[6] = system: HCT-116
[7] = system: NCI-H522
[8] = system: MDA-MB-435
[9] = system: RXF 393
[10] = system: M14
[11] = system: UACC-257
[12] = system: SNB-19
[13] = system: MOLT-4
[14] = system: SK-MEL-2
[15] = system: A549
[16] = system: SN12C
[17] = system: SF-295
[18] = system: MDA-N
[19] = system: T47D
[20] = system: Hs-578T

SMILES | GI50 [1] | GI50 [2] | GI50 [3] | GI50 [4] | GI50 [5] | GI50 [6] | GI50 [7] | GI50 [8] | GI50 [9] | GI50 [10] | GI50 [11] | GI50 [12] | GI50 [13] | GI50 [14] | GI50 [15] | GI50 [16] | GI50 [17] | GI50 [18] | GI50 [19] | GI50 [20]
COc1ccc2nc3ccccc3c(NCCN(C)CCCl)c2c1 | 0.205 µM (active) | 0.322 µM (active) | 0.388 µM (active) | 1.69 µM (inactive) | 0.259 µM (active) | 0.249 µM (active) | 0.282 µM (active) | 0.364 µM (active) | 0.592 µM (active) | 0.843 µM (active) | 1.64 µM (inactive) | 1.12 µM (inactive) | 0.0429 µM (active) | 0.847 µM (active) | 0.479 µM (active) | 0.319 µM (active) | 0.728 µM (active) | 0.344 µM (active) |  | 
COc1cccc(C2SCC(=O)N2c2ccc(-c3ccc(-n4c(-c5ccccc5)nc5ccccc5c4=O)cc3)cc2)c1OC (centres undefined) | 67.8 µM (inactive) | > 100 µM (inactive) | 32.6 µM (inactive) | > 100 µM (inactive) | 73.8 µM (inactive) | 59.8 µM (inactive) | > 100 µM (inactive) | 53.5 µM (inactive) |  | > 100 µM (inactive) | > 100 µM (inactive) | > 100 µM (inactive) | 60.8 µM (inactive) | > 100 µM (inactive) | 83.8 µM (inactive) | > 100 µM (inactive) | > 100 µM (inactive) |  | 24.5 µM (inactive) | 58.9 µM (inactive)
O=C(O)COc1cc(-c2ccccc2F)nc2cc3c(cc12)OCO3 | > 100 µM (inactive) |  | > 100 µM (inactive) | > 100 µM (inactive) |  | > 100 µM (inactive) |  | > 100 µM (inactive) | > 100 µM (inactive) | > 100 µM (inactive) | > 100 µM (inactive) |  | > 100 µM (inactive) | > 100 µM (inactive) | > 100 µM (inactive) | > 100 µM (inactive) | > 100 µM (inactive) | > 100 µM (inactive) | > 100 µM (inactive) | 
N#CCCC1(CCC#N)CCc2ccccc2C1=O | > 100 µM (inactive) | > 100 µM (inactive) | > 100 µM (inactive) | > 100 µM (inactive) | > 100 µM (inactive) | > 100 µM (inactive) | > 100 µM (inactive) | > 100 µM (inactive) |  | > 100 µM (inactive) | > 100 µM (inactive) | > 100 µM (inactive) | > 100 µM (inactive) | > 100 µM (inactive) |  | > 100 µM (inactive) |  | > 100 µM (inactive) | > 100 µM (inactive) | 
S=C(Nc1ccccn1)Nc1ccccc1Cl | > 52.4 µM (inactive) | 71 µM (inactive) | 55.3 µM (inactive) | > 100 µM (inactive) | > 80.7 µM (inactive) | > 71.9 µM (inactive) | 14.7 µM (inactive) | 69.5 µM (inactive) | 33.3 µM (inactive) | > 100 µM (inactive) | > 72.9 µM (inactive) | 27 µM (inactive) | > 100 µM (inactive) | > 100 µM (inactive) | 50.8 µM (inactive) | > 100 µM (inactive) | > 64.9 µM (inactive) | > 100 µM (inactive) | 67.8 µM (inactive) | 
COc1ccc(/C=N/N=C(\N)NO)cc1F | 14.5 µM (inactive) | 11.9 µM (inactive) | 21.9 µM (inactive) | > 100 µM (inactive) | 27.4 µM (inactive) | 27 µM (inactive) | 22.1 µM (inactive) |  | 38.2 µM (inactive) | 14.2 µM (inactive) | 46.6 µM (inactive) | 37.6 µM (inactive) | 31.1 µM (inactive) | 13.3 µM (inactive) | 14.3 µM (inactive) | 26.7 µM (inactive) | 23 µM (inactive) |  |  | 
COc1nc(C(Cl)(Cl)Cl)c(Cl)c(O)c1Cl | 30.5 µM (inactive) | > 100 µM (inactive) | > 100 µM (inactive) | > 100 µM (inactive) | > 100 µM (inactive) | > 100 µM (inactive) | 49.3 µM (inactive) | > 100 µM (inactive) |  |  | > 100 µM (inactive) | > 100 µM (inactive) | > 100 µM (inactive) | > 100 µM (inactive) | > 100 µM (inactive) | > 100 µM (inactive) | > 100 µM (inactive) | > 100 µM (inactive) | > 100 µM (inactive) | 
O=c1c2cc3ccccc3n2c(=O)c2cc3ccccc3n12 | > 100 µM (inactive) | > 100 µM (inactive) | > 100 µM (inactive) | > 100 µM (inactive) | > 100 µM (inactive) | > 100 µM (inactive) | > 100 µM (inactive) |  | > 100 µM (inactive) | > 100 µM (inactive) | > 100 µM (inactive) | > 100 µM (inactive) | > 100 µM (inactive) | > 100 µM (inactive) | > 100 µM (inactive) | > 100 µM (inactive) | > 100 µM (inactive) |  |  | 
O=C(CC1=Nc2nnc(-c3nnc4n3C(=O)C(CC(=O)c3cccnc3)=N4)n2C1=O)c1cccnc1 | > 100 µM (inactive) | > 100 µM (inactive) | > 100 µM (inactive) | > 100 µM (inactive) | > 100 µM (inactive) | > 100 µM (inactive) | > 100 µM (inactive) |  | > 100 µM (inactive) | > 100 µM (inactive) | > 100 µM (inactive) | > 100 µM (inactive) | > 100 µM (inactive) | > 100 µM (inactive) | > 100 µM (inactive) | > 100 µM (inactive) | > 100 µM (inactive) |  |  | 
CS(=O)(=O)N(CCC#N)c1ccc(/C=C2\N=C(c3ccccc3Cl)OC2=O)cc1 | > 100 µM (inactive) | > 100 µM (inactive) | > 100 µM (inactive) | > 100 µM (inactive) | > 100 µM (inactive) | > 100 µM (inactive) | > 100 µM (inactive) |  | > 100 µM (inactive) | > 100 µM (inactive) | > 100 µM (inactive) | > 100 µM (inactive) | > 100 µM (inactive) | > 100 µM (inactive) | > 100 µM (inactive) | > 100 µM (inactive) | > 100 µM (inactive) |  |  | 
C=CCn1c(-c2cc(C(C)(C)C)c(O)c(C(C)(C)C)c2)cs/c1=N\C(P(=O)(O)O)P(=O)(O)O | > 100 µM (inactive) | > 100 µM (inactive) | > 100 µM (inactive) | > 100 µM (inactive) | 19.9 µM (inactive) | 14.7 µM (inactive) |  | > 100 µM (inactive) |  | > 100 µM (inactive) |  | > 100 µM (inactive) | > 100 µM (inactive) | > 100 µM (inactive) | > 100 µM (inactive) | > 100 µM (inactive) | > 100 µM (inactive) |  | > 100 µM (inactive) | > 100 µM (inactive)
C[C@@]12CCC(=O)c3coc(c31)C(=O)c1cc3c(cc12)C(=O)C=CC3=O [HELENAQUINONE] | 21.1 µM (inactive) | 26.6 µM (inactive) | 17.6 µM (inactive) | 16.3 µM (inactive) | 2.45 µM (inactive) | 15.4 µM (inactive) | 9.2 µM (inactive) |  | 21.2 µM (inactive) | 14.5 µM (inactive) | 11.6 µM (inactive) | > 100 µM (inactive) | 14.3 µM (inactive) | 23.9 µM (inactive) | 45.2 µM (inactive) | 16.6 µM (inactive) | 16.7 µM (inactive) |  |  | 
